According to patent US5795615A, “Process for producing metal carboxylates for use as animal feed supplements” (priority 1995, dated 1998):

What was measured:
[1] = Comparative zinc bioavailability: growth parameters and zinc levels in blood and tibia ash of broilers; settings: for Relative Biological Availability (%): Ending body weight (lbs) 21 days / Relative Biological Availability (%): Body weight gain (lbs) 21 days: broilers fed 21 days; for Relative Biological Availability (%): Ending body weight (lbs) 21 days: relative to zinc sulfate arbitrarily set at 100%, superscripts: means in a row without common superscript differ (P < 0.05, LSD)
Method: Each zinc treatment was replicated eight times and each pen contained ten male birds.
Basal feeds and zinc compound were mixed in a horizontal feed mixer providing the desired ingredient composition as shown in Table 4. The broilers were fed the rations for 21 days. Feed weights were taken during the trial. Body weights were measured at the beginning and at the end of the trial. On day 21, zinc levels in the blood and tibia ash were determined. The assay procedures for total tibia zinc content or concentration to assess zinc utilization are similar to those used by Wedekind et al., J. Anim. Sci., 70:178-187 (1992). The data were analyzed according to the SAS statistical package.
Chick growth parameters and zinc levels in the blood and tibia ash were used as criteria to determine the biological availability of zinc. […] The biological availability of zinc sulfate was arbitrarily set at 100%.

[2] = cited from earlier work
[3] = relative to zinc sulfate set at 100%, superscripts: P < 0.05, LSD
[4] = broilers, relative to zinc sulfate set at 100%, superscripts: P < 0.05, LSD
[5] = broilers, day 21, relative to zinc sulfate set at 100%, superscripts: P < 0.05, LSD

Compound	Relative Biological Availability (%): Ending body weight (lbs) 21 days [1] [%]	Relative Biological Availability (%): Body weight gain (lbs) 21 days [1, 3] [%]	Relative Biological Availability (%): Feed conversion (corr.) 3-21 days [1, 4] [%]	Relative Biological Availability (%): Bone ash (%) 21 days [1, 5] [%]	Relative Biological Availability (%): Plasma Zinc (μg/ml) ([1]; chicken, in vivo, 30240 min) [%]	Relative Biological Availability (%): Tibia ash zinc (μg/g) ([1]; chicken, in vivo, 30240 min) [%]	solubility in water [2] [g/100 ml]	ending body weights compared with zinc sulfate ([1]; both the 10 mg/kg and 20 mg/kg levels)	Relative Biological Availability (%): Plasma Zinc (μg/ml) ([1]; broilers, day 21, plasma, relative to zinc sulfate set at 100%, superscripts: P < 0.05, LSD) [%]	Relative Biological Availability (%): Tibia ash zinc (μg/g) ([1]; broilers, day 21, tibia ash, relative to zinc sulfate set at 100%, superscripts: P < 0.05, LSD) [%]	levels of zinc in the blood and tibia ash on day 21 ([1]; day 21, zinc propionate versus zinc methionine)
O=S(=O)([O-])[O-].[Zn+2] [Sulfate, zinc sulfate, reference compound]	100.00	100.00	100.00	100.00	100.00	100.00	–	–	–	–	–
[O]=[Zn] [Zinc oxide, zinc oxide]	–	–	–	–	–	–	0.00016	–	–	–	–
CSCC[C@H](N)C(=O)O.O=S(=O)([O-])O.O=S(=O)([O-])O.[Zn+2] [Zinpro ®, Zinc methionine bisulfate]	132.46	131.52	90.38	113.95	–	–	–	statistically significant higher ending body weights	124.00	123.99	comparable levels of zinc
